The text below walks through data of patent publication US20250195530A1, “POLQ INHIBITORS” (ASTRAZENECA AB, priority 2022, published 2025).

For assay [1], the system named is DLD-1 BRCA2−/− cells. The experiment in a line: Homologous recombination synthetic lethal inhibition of proliferation, DLD-1 BRCA2-/- (Cell Titre Glo 3D). The settings on record: Homo sapiens. In kind it is cell-based. The method in brief: (§1)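 Read-out: CellTiter-Glo 3D luminescence, day 7 for wt DLD-1, day 12 for BRCA2−/−, about 8-9 population doublings each. Seeding 1,500 or 3,000 cells/mL respectively. Dose range 10 μM–0.51 nM, 3-fold, 10 points, with re-dosing on day 6. IC50 from curve fit.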

Assay [2] relates to DLD-1 cells. As to the kind of experiment: Inhibition of proliferation, DLD-1 BRCA2 wt control (Cell Titre Glo 3D). It counts as cell-based. Particulars: Homo sapiens. The method in brief: as §1
[3] abbreviates: DLD-1, DLD-1 BRCA2 −/−, mean, read-out: POLQ PD Prolif Lumin BRCA2 −/− mean pIC50 (converted).
The mark [4] stands for this setting: DLD-1, DLD1 BRCA2 wt, mean, read-out: POLQ PD Prolif Lumin DLD1 mean pIC50 (converted).
Where [5] appears, read: DLD-1, proliferation, luminescence, taken as DLD-1 BRCA2-/-, read-out: POLQ PD Prolif Lumin (converted).
Where [6] appears, read: DLD-1, proliferation, luminescence, second Prolif column (c6), taken as DLD-1 BRCA2 wt control, read-out: POLQ PD Prolif Lumin (converted).
Where [7] appears, read: DLD-1, DLD-1 BRCA2 −/− cells, mean, read-out: POLQ PD Prolif Lumin BRCA2 −/− mean pIC50 (converted).
Setting [8] is: DLD-1, DLD1 BRCA2 wt cells, mean, read-out: POLQ PD Prolif Lumin DLD1 mean PIC50 (converted).
The mark [9] stands for this setting: DLD-1, 288 h, DLD-1 BRCA2−/− cells, 12 days, read-out: POLQ PD Prolif Lumin BRCA2 −/− mean pIC50 (converted).
Where [10] appears, read: DLD-1, 168 h, DLD-1 BRCA2 wt cells, 7 days, read-out: POLQ PD Prolif Lumin DLD1 mean pIC50 (converted).
Setting [11] is: DLD-1, first proliferation column (c5), taken as DLD-1 BRCA2-/-, read-out: POLQ PD Prolif Lumin (converted).
Where [12] appears, read: DLD-1, second proliferation column (c6), taken as DLD-1 BRCA2 wt, read-out: POLQ PD Prolif Lumin (converted).
Setting [13] is: DLD-1, first proliferation column (c5), DLD-1 BRCA2-/-, read-out: POLQ PD Prolif Lumin (converted).
The mark [14] stands for this setting: DLD-1, second proliferation column (c6), DLD-1 BRCA2 wt control, read-out: POLQ PD Prolif Lumin (converted).

Molecules are shown by their SMILES. Where two headings read alike, the source gives them in different places.

`COc1ccc(Cl)cc1Cn1c(-c2ccc(OCC(C)CC(=O)O)cc2Cl)nc2c(OC3(C)CC3)ncnc21` (racemic) [Example U42, 4-(3-chloro-4-(9-(5-chloro-2-methoxybenzyl)-6-(1-methylcyclopropoxy)-9H-purin-8-yl)phenoxy)-3-methylbutanoic acid]: the IC50 was 39.8 nM in assay [1] (setting [3]) and above 10000 nM in assay [2] (setting [4]).

As for `Cc1ccnc(Cn2c(-c3ccc(OC4CN(C(=O)[C@@H](C)O)C4)cc3Cl)nc3c(OC4(C)CC4)ncnc32)c1` [Example T482, (R)-1-(3-(3-chloro-4-(6-(1-methylcyclopropoxy)-9-((4-methylpyridin-2-yl)methyl)-9H-purin-8-yl)phenoxy)azetidin-1-yl)-2-hydroxypropan-1-one], the IC50 is 316 nM in assay [1] (setting [5]) and above 10000 nM in assay [2] (setting [6]).

Take `CC1(Oc2ncnc3c2nc(-c2ccc(OCCO)cc2Cl)n3Cc2cc(Cl)ccn2)CC1` [Example T15, 2-(3-chloro-4-(9-((4-chloropyridin-2-yl)methyl)-6-(1-methylcyclopropoxy)-9H-purin-8-yl)phenoxy)ethan-1-ol]: the IC50 was 100 nM in assay [1] (setting [7]) and above 10000 nM in assay [2] (setting [8]).

On to `Cc1cc(N2CC(N)C2)ncc1-c1nc2c(OC3(C)CC3)ncnc2n1Cc1ccccc1` [Example 19, 1-(5-(9-Benzyl-6-(1-methylcyclopropoxy)-9H-purin-8-yl)-4-methylpyridin-2-yl)azetidin-3-amine], for which the results for the IC50 in assay [1] (setting [9]) and in assay [2] (setting [10]) were 501 nM and above 10000 nM, respectively.

Consider `CC1(Oc2ncnc3c2nc(-c2ccc(/C=C/C(=O)O)cc2Cl)n3Cc2ccccc2)CC1` [Example M4, (E)-3-(4-(9-benzyl-6-(1-methylcyclopropoxy)-9H-purin-8-yl)-3-chlorophenyl)acrylic acid], for which the figures for the IC50 in assay [1] (setting [9]) and in assay [2] (setting [10]) were 631 nM and above 10000 nM, respectively.

For `Cc1ccnc(Cn2c(-c3ccc(OC[C@H]4CCCN4)cc3Cl)nc3c(OC4(C)CC4)ncnc32)c1` [Example T356, (R)-8-(2-chloro-4-(pyrrolidin-2-ylmethoxy)phenyl)-6-(1-methylcyclopropoxy)-9-((4-methylpyridin-2-yl)methyl)-9H-purine], the IC50 in assay [1] (setting [11]) was 200 nM; in assay [2] (setting [12]), above 10000 nM.

Turning to `Cc1ccnc(Cn2c(-c3ccc(NS(C)(=O)=O)cc3Cl)nc3c(OC4(C)CC4)ncnc32)c1` [Example T29, N-(3-chloro-4-(6-(1-methylcyclopropoxy)-9-((4-methylpyridin-2-yl)methyl)-9H-purin-8-yl)phenyl)methanesulfonamide], the IC50 in assay [1] (setting [7]) was 1260 nM; in assay [2] (setting [8]) it was above 10000 nM.

Regarding `CC1(Oc2ncnc3c2nc(-c2ccc(OCCN4CCNCC4)cc2Br)n3Cc2cc(Cl)ccn2)CC1` [Example T348, 8-(2-bromo-4-(2-(piperazin-1-yl)ethoxy)phenyl)-9-((4-chloropyridin-2-yl)methyl)-6-(1-methylcyclopropoxy)-9H-purine], the values for the IC50 in assay [1] (setting [11]) and in assay [2] (setting [12]) were 126 nM and above 10000 nM, respectively.

For the compound `CNCCCOc1ccc(-c2nc3c(OC4(C)CC4)ncnc3n2Cc2cc(Cl)ccn2)c(Cl)c1` [Example T134, 3-(3-chloro-4-(9-((4-chloropyridin-2-yl)methyl)-6-(1-methylcyclopropoxy)-9H-purin-8-yl)phenoxy)-N-methylpropan-1-amine], the IC50 in assay [1] (setting [13]) was 126 nM; in assay [2] (setting [14]), above 10000 nM.

As for `Cc1cc(OCCN2CCN(C)CC2)ncc1-c1nc2c(OC3(C)CC3)ncnc2n1Cc1ccccc1` [Example C3, 9-benzyl-8-(4-methyl-6-(2-(4-methylpiperazin-1-yl)ethoxy)pyridin-3-yl)-6-(1-methylcyclopropoxy)-9H-purine], the IC50 in assay [1] (setting [9]) is 316 nM; in assay [2] (setting [10]) it was 7940 nM.

Regarding `Cc1ccnc(Cn2c(-c3ccc(CN(C)C)cc3Cl)nc3c(OC4(C)CC4)ncnc32)c1` [Example T136, 1-(3-chloro-4-(6-(1-methylcyclopropoxy)-9-((4-methylpyridin-2-yl)methyl)-9H-purin-8-yl)phenyl)-N,N-dimethylmethanamine], the IC50 was 501 nM in assay [1] (setting [13]) and above 10000 nM in assay [2] (setting [14]).

Turning to `Cc1ccnc(Cn2c(-c3ccc(OC4CNC(=O)NC4)cc3Cl)nc3c(OC4(C)CC4)ncnc32)c1` [Example 42, 5-(3-Chloro-4-(6-(1-methylcyclopropoxy)-9-((4-methylpyridin-2-yl)methyl)-9H-purin-8-yl)phenoxy)tetrahydropyrimidin-2(1H)-one], the IC50 is 6310 nM in assay [1] (DLD-1, 288 h, DLD-1 BRCA2−/−, 12 days, Cell Titre Glo 3D, read-out: POLQ PD Prolif Lumin BRCA2 −/− Mean pIC50 (converted)) and above 10000 nM in assay [2] (DLD-1, 168 h, DLD-1 (BRCA2 wt control), 7 days, Cell Titre Glo 3D, read-out: POLQ PD Prolif Lumin DLD1 Mean pIC50 (converted)).

Take `Cc1ccnc(Cn2c(-c3ccc(CC(=O)N4CCNCC4)cc3Cl)nc3c(OC4(C)CC4)ncnc32)c1` [Example T495, 2-(3-chloro-4-(6-(1-methylcyclopropoxy)-9-((4-methylpyridin-2-yl)methyl)-9H-purin-8-yl)phenyl)-1-(piperazin-1-yl)ethan-1-one]: the IC50 in assay [1] (setting [13]) is 794 nM; in assay [2] (setting [14]), above 10000 nM.

Regarding `Cc1cc(OCCN(C)C)ncc1-c1nc2c(OC3(C)CC3)ncnc2n1Cc1ccccc1` [Example G12, 2-((5-(9-benzyl-6-(1-methylcyclopropoxy)-9H-purin-8-yl)-4-methylpyridin-2-yl)oxy)-N,N-dimethylethan-1-amine], the IC50 was 316 nM in assay [1] (setting [9]) and above 10000 nM in assay [2] (setting [10]).

On to `CC1(Oc2ncnc3c2nc(-c2ccc(OCCN4CCNCC4)cc2Cl)n3Cc2ccccn2)CCC1` [Example J7, 8-(2-chloro-4-(2-(piperazin-1-yl)ethoxy)phenyl)-6-(1-methylcyclobutoxy)-9-(pyridin-2-ylmethyl)-9H-purine], for which the IC50 in assay [1] (setting [9]) is 316 nM; in assay [2] (setting [10]), 7940 nM.

With `CC1(Oc2ncnc3c2nc(-c2ccc(OCCC(C)(C)C(=O)O)cc2Cl)n3Cc2cccc(Cl)c2)CC1` [Example T435, 4-(3-chloro-4-(9-(3-chlorobenzyl)-6-(1-methylcyclopropoxy)-9H-purin-8-yl)phenoxy)-2,2-dimethylbutanoic acid], the results for the IC50 in assay [1] (setting [5]) and in assay [2] (setting [6]) were 200 nM and above 10000 nM, respectively.

Turning to `COc1ccc(-c2nc3cc(OC(C)C)ccc3n2Cc2ccccc2)c(Cl)c1` [Example A12, 1-benzyl-2-(2-chloro-4-methoxyphenyl)-5-isopropoxy-1H-benzo[d]imidazole], the IC50 in assay [1] (setting [9]) is 2000 nM; in assay [2] (setting [10]), above 10000 nM.

`COc1ccc(Cl)cc1Cn1c(-c2ccc(CCCC(C)C(=O)O)cc2Cl)nc2c(OC3(C)CC3)ncnc21` (racemic) [Example U56, 5-(3-chloro-4-(9-(5-chloro-2-methoxybenzyl)-6-(1-methylcyclopropoxy)-9H-purin-8-yl)phenyl)-2-methylpentanoic acid]: the IC50 was 126 nM in assay [1] (setting [3]) and above 10000 nM in assay [2] (setting [4]).

On to `Cc1cccnc1Cn1c(-c2ccc(OCCN3CCNCC3)cc2Cl)nc2c(OC3(C)CC3)ncnc21` [Example L9, 8-(2-chloro-4-(2-(piperazin-1-yl)ethoxy)phenyl)-6-(1-methylcyclopropoxy)-9-((3-methylpyridin-2-yl)methyl)-9H-purine], for which the IC50 in assay [1] (setting [9]) is 3160 nM; in assay [2] (setting [10]), above 10000 nM.

In the case of `Cc1ccnc(Cn2c(-c3ccc(NC(=O)OCCO)cc3Cl)nc3c(OC4(C)CC4)ncnc32)c1` [Example T123, 2-hydroxyethyl (3-chloro-4-(6-(1-methylcyclopropoxy)-9-((4-methylpyridin-2-yl)methyl)-9H-purin-8-yl)phenyl)carbamate], the results for the IC50 in assay [1] (setting [13]) and in assay [2] (setting [14]) were 200 nM and above 10000 nM, respectively.

`Cc1ccnc(Cn2c(-c3ccc(N4CC(C(N)=O)C4)cc3Cl)nc3c(OC4(C)CC4)ncnc32)c1` [Example T204, 1-(3-chloro-4-(6-(1-methylcyclopropoxy)-9-((4-methylpyridin-2-yl)methyl)-9H-purin-8-yl)phenyl)azetidine-3-carboxamide]: the IC50 in assay [1] (DLD-1, DLD-1 BRCA2-/- proliferation, column head only partly shown, read-out: POLQ PD Prolif Lumin (converted)) is 631 nM; in assay [2] (DLD-1, DLD-1 BRCA2 wt control proliferation, column head only partly shown, read-out: POLQ PD Prolif Lumin (converted)) it was above 10000 nM.

Take `CN(C)CCCOc1ccc(-c2nc3c(OC4(C)CC4)ncnc3n2Cc2cc(C(F)(F)F)ccn2)c(Cl)c1` [Example T329, 3-(3-chloro-4-(6-(1-methylcyclopropoxy)-9-((4-(trifluoromethyl)pyridin-2-yl)methyl)-9H-purin-8-yl)phenoxy)-N,N-dimethylpropan-1-amine]: the IC50 in assay [1] (setting [11]) is 126 nM; in assay [2] (setting [12]), 10000 nM.
